Reference: patent US7642277B2, “Non-nucleoside reverse transcriptase inhibitors” (Boehringer Ingelheim International GmbH, priority 2002, dated 2010)
pEC50, pIC50: −log10 of the molar value. Where two headings read alike, the source gives them in different places.

Columns and labels:
[1] = tested on: HIV-1 (wild type); experiment: P24 cellular assay (EC50), data identified with * in Table 9, wild type; type: cell-based
Source text: P24 Cellular Assay (EC50) (Data Identified with * in Table 9).
The p24 assay is as described in WO 01/96338, the contents of which are herein incorporated by reference.
(§1) The results are listed in Table 9 as IC50(nM) and EC50 (nM).
(§2) Table legend: A=>100; B=100-50; C=<50; NT=not tested

[2] = tested on: HIV-1 resistant mutant K103N/Y181C in C8166 LTRluc cells; experiment: C8166 HIV-1 luciferase assay (EC50), resistant mutant; type: cell-based; conditions: Human immunodeficiency virus 1, C8166, read-out: EC50 K103N/Y181C
Source text: (§3) C8166 HIV-1 Luciferase Assay (EC50)
(§4) Plasmid: pGL3 Basic LTR/TAR #12
(§5) C8166 cells are a human T-lymphotrophic virus type 1 immortalized but nonexpressing line of cord blood lymphocytes and are highly permissive to HIV-1 infection. The reporter cells were made by electroporating C8166 cells with pGL3 Basic LTR/TAR and then selecting positive clones with blasticidine. The clone C8166-LTRluc #A8-F5-G7 was selected by 3 consecutive rounds of limiting dilution under blasticidine selection.
(§6) Media: Complete media consisting of: RPMI 1640+10% FBS+10^−5 M
(§7) β-mercaptoethanol+10 μg/ml gentamycin. Cultures are maintained in complete media with 5 μg/ml blasticidine, however, selection is removed for the assay.
(§8) Luciferase Assay Protocol
(§9) Eleven serial dilutions of 2.5× are made at 8× desired final concentration in a 1 ml deep well titer plate (96 wells). The 12th well contains complete media with no inhibitor and serves as the positive control. All samples contain the same concentration of DMSO (≦0.1% DMSO). A 25 μl aliquot of inhibitor is added, to triplicate wells, of a 96 well tissue culture treated clear view black microtiter plate (Corning Costar catalogue # 3904). The last row is reserved for uninfected C8166 LTRluc cells to serve as the background blank control and the first row is media alone.
Count C8166 LTRluc cells and place in a minimal volume of complete RPMI 1640 in a tissue culture flask (ex. 30×10^6 cells in 10 ml media/25 cm^2 flask). […] Incubate cells for 1.5 hours at 37° C. on a rotating rack in a 5% CO2 incubator. Resuspend cells in complete RPMI to give a final concentration of 25,000-cells/175 μl. Add 175 μl of cell mix to wells of 96 well microtiter plate containing 25 μl 8× inhibitors. Add 25,000 uninfected C8166-LTRluc cells/well in 200 μl complete RPMI to last row for background control. Incubate cells at 37° C. in 5% CO2 incubator for 3 days.
(§10) Add 50 μl Steady Glo (luciferase substrate T1/2=5 hours Promega catalogue # E2520) to each well of the 96 well plate. Determine the relative light units (RLU) of luciferase using the BMG LUMlstar Galaxy luminometer. Plates are read from the bottom for 2 seconds per well with a gain of 240.
(§11) The level of inhibition (% inhibition) of each well containing inhibitor was calculated with the following equation: […]
The calculated % inhibition values were then used to determine EC50, slope factor (n) and maximum inhibition (Imax) by the non-linear regression routine NLIN procedure of SAS using the following equation:
as §2

[3] = tested on: HIV-1 (wild type) in C8166 LTRluc cells; experiment: C8166 HIV-1 luciferase assay (EC50), wild type; type: cell-based; conditions: Human immunodeficiency virus 1, C8166 HIV-1 luciferase assay (no *)
Source text: as §3, §4
Plasmid is the pGL3 Basic Vector (a promoterless luciferase expression vector from Promega catalogue #E1751) with the addition of HIV-1 H×B2 LTR sequence from nucleotide −138 to +80 (Sca1-HindIII) upstream of the luciferase gene and the gene for blasticidine resistance cloned in.
as §5, §6, §7, §8
as §9, with “Serial dilutions of HIV-1 inhibitors compounds are prepared in complete media from 10 mM DMSO stock solutions. Eleven” for “Eleven”
Count C8166 LTRluc cells and place in a minimal volume of complete RPMI 1640 in a tissue culture flask (ex. 30×10^6 cells in 10 ml media/25 cm^2 flask). Infect cells with HIV-1 at a moi of 0.005. Incubate cells for 1.5 hours at 37° C. on a rotating rack in a 5% CO2 incubator. Resuspend cells in complete RPMI to give a final concentration of 25,000-cells/175 μl. Add 175 μl of cell mix to wells of 96 well microtiter plate containing 25 μl 8× inhibitors. Add 25,000 uninfected C8166-LTRluc cells/well in 200 μl complete RPMI to last row for background control. Incubate cells at 37° C. in 5% CO2 incubator for 3 days.
as §10, §11
The calculated % inhibition values were then used to determine EC50, slope factor (n) and maximum inhibition (Imax) by the non-linear regression routine NLIN procedure of SAS using the following equation: […]
as §1, §2

[4] = target: T1, HIV-1 RT enzyme (wild type) (Human immunodeficiency virus type 1 group M subtype B, UniProt P04585); experiment: Reverse transcriptase (RT) enzymatic assay (IC50), PicoGreen fluorescence, wild type; type: biochemical; conditions: RT enzymatic assay, wild type; read-out: IC50 WT
T1 construct: The reverse transcriptase (RT) enzyme assay has been adapted to a 96-well microtiter plate format
How it was run: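 Enzyme at ≈10 nM in 50 mM Tris/HCl pH 7.8 with 60 mM NaCl, 2 mM MgCl2, 6 mM DTT, 2 mM GSH, 0.02% Chaps; 15 min preincubation with compound at room temperature, then substrate added and run 50 min at 37 °C. EDTA quench; product DNA read by PicoGreen fluorescence.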

[5] = target: T2, HIV-1 RT resistant mutant K103N/Y181C (Human immunodeficiency virus type 1 group M subtype B, UniProt P04585, K690N/Y768C); experiment: Reverse transcriptase (RT) enzymatic assay (IC50), PicoGreen fluorescence, resistant mutant; type: biochemical
T2 construct: The reverse transcriptase (RT) enzyme assay has been adapted to a 96-well microtiter plate format
Protocol: Reverse Transcriptase (RT) Assays Enzymatic Assay (IC50)
The enzymatic assay employed is described as follows: The reverse transcriptase (RT) enzyme assay has been adapted to a 96-well microtiter plate format and uses PicoGreen™ as a fluorescent intercalator. More explicitly, the HIV-1 RT enzyme was thawed and appropriately diluted into Tris/HCl 50 mM pH 7.8 containing NaCl 60 mM, MgCl2∘6H2O 2 mM, DTT 6 mM, GSH 2 mM and 0.02% w/v Chaps to give ≈10 nM enzyme. To 10 μL of this enzyme solution was added 10 μL of inhibitor solution (40 μM to […] inhibitor in the same assay buffer as above containing 4% v/v DMSO). The plate was pre-incubated for 15 minutes at room temperature before proceeding to the next step. In this pre-incubation step, the highest and lowest inhibitor concentrations were 20 μM and 1.016 nM respectively and the concentration of DMSO was 2% v/v. Then the enzymatic reaction was initiated by addition of 20 μL of substrate solution. The final reaction mixture contained Tris/HCl 50 mM pH 7.8, NaCl 60 mM, MgCl2∘6H2O 2 mM, DTT 6 mM, GSH 2 mM, CHAPS 0.02% w/v, DMSO 1% v/v, poly rC 45 nM, dG15 4.5 nM, dGTP 3.6 μM, and ≈2.5 nM enzyme. In this incubation step, the highest and lowest inhibitor concentrations were 10 μM and 0.508 nM respectively. After addition of the substrate cocktail, the plate was covered with a plastic seal and incubated for 50 minutes at 37° C. in a dry incubator. The reaction was then quenched by addition of 5 μL of EDTA 0.5 M. The plate was shaken for 30 seconds at medium speed and incubated for 5 minutes at room temperature. Then 160 μL of PicoGreen™ 1:400 dilution from commercial stock (diluted in Tris 20 mM pH 7.5 with EDTA 1 mM) was added and the plate was shaken for 30 seconds and incubated for 10 minutes at room temperature. The plate was then analyzed using a POLARstar Galaxy fluorimeter (BMG Labtechnologies) with λex and λem of 485 nm and 520 nm respectively. […] Each row contained at its extremities a blank and a control well.
as §2

| pEC50 [1] | pEC50 ([1]; Human immunodeficiency virus 1) | Structure (SMILES) | pEC50 [2] | pEC50 [3] | pIC50 [4] | pIC50 [5] |
| --- | --- | --- | --- | --- | --- | --- |
| > 7.30 | – | O=C(CSc1nc(-c2cccc3ccccc23)c[nH]1)Nc1ccccc1[N+](=O)[O-] [Entry 401, 2-{{4-(1-Naphthalenyl)-1H-imidazol-2-yl}thio}-N-(2-nitrophenyl)acetamide] | – | – | – | – |
| – | – | Cc1ccc(-n2nnnc2SCC(=O)Nc2ccc(S(C)(=O)=O)cc2Cl)c(Cl)c1 [Entry 509] | < 7.00 | > 7.30 | > 7.30 | < 7.00 |
| – | – | O=C(CSc1nnnn1-c1cccc2ccccc12)Nc1ccc(O)cc1Cl [Entry 246] | < 7.00 | > 7.30 | > 7.30 | < 7.00 |
| – | – | CC(C)(C)c1ccc(-n2nnnc2SCC(=O)Nc2ccncc2Cl)c(Cl)c1 [Entry 801] | > 7.30 | > 7.30 | > 7.30 | > 7.30 |
| – | – | CC(C)(C)c1ccc(-n2nnnc2SCC(=O)Nc2ccc(N3CCNCC3)cc2Cl)c(Cl)c1 [Entry 615] | < 7.00 | > 7.30 | > 7.30 | < 7.00 |
| – | – | CC(C)(C)c1ccc(-n2nnnc2SCC(=O)Nc2ccc(N)cc2Cl)c(Cl)c1 [Entry 617] | 7.00 to 7.30 | > 7.30 | > 7.30 | < 7.00 |
| – | – | Cc1ccc(-c2ccccc2SCC(=O)Nc2ccccc2Cl)c(Cl)c1 [Entry 416] | < 7.00 | > 7.30 | > 7.30 | < 7.00 |
| – | – | Cc1ccc(-n2nnnc2SCC(=O)Nc2ccc(C(N)=O)cc2Cl)c(Cl)c1 [Entry 504] | > 7.30 | > 7.30 | > 7.30 | < 7.00 |
| – | – | CC(C)(C)c1ccc(-n2nnnc2SCC(=O)Nc2ccc(S(=O)(=O)c3ccc(Cl)cc3)cc2Cl)c(Cl)c1 [Entry 605] | < 7.00 | 7.00 to 7.30 | > 7.30 | < 7.00 |
| – | – | Cc1ccc(-n2nnnc2SCC(=O)Nc2ccc(-c3cccnc3)cc2Cl)c(Cl)c1 [Entry 512] | < 7.00 | > 7.30 | > 7.30 | < 7.00 |
| – | – | Cc1cc(C)c(-n2nnnc2SCC(=O)Nc2ccccc2[N+](=O)[O-])c(Cl)c1 [Entry 146] | 7.00 to 7.30 | > 7.30 | > 7.30 | 7.00 to 7.30 |
| – | 7.00 to 7.30 | O=C(COc1nnnn1-c1cccc2ccccc12)Nc1ccccc1[N+](=O)[O-] [Entry 302] | – | – | – | – |
| – | – | Cc1ccc(-n2nnnc2SCC(=O)Nc2ccc(-c3ccccc3)cc2Cl)c(Cl)c1 [Entry 510] | < 7.00 | > 7.30 | > 7.30 | 7.00 to 7.30 |
| – | – | Cc1nnc(SCC(=O)Nc2ccccc2[N+](=O)[O-])n1-c1cccc2ccccc12 [Entry 403] | < 7.00 | > 7.30 | > 7.30 | < 7.00 |
| – | – | CC(C)(C)c1ccc(-n2nnnc2SCC(=O)Nc2ccc(C(=O)O)cc2Cl)c(Cl)c1 [Entry 616] | > 7.30 | > 7.30 | > 7.30 | 7.00 to 7.30 |
| – | – | CC(C)(C)c1ccc(-n2nnnc2SCC(=O)Nc2ccc(CCC(=O)O)cc2Cl)c(Cl)c1 [Entry 601] | < 7.00 | > 7.30 | > 7.30 | < 7.00 |
| – | – | Cc1nnc(SCC(=O)Nc2ccccc2Cl)n1-c1ccc(C(C)(C)C)cc1Cl [Entry 430] | 7.00 to 7.30 | > 7.30 | > 7.30 | 7.00 to 7.30 |
| – | – | Cc1ccc(-n2c(CCO)nnc2SCC(=O)Nc2ccc(-c3ccccc3)cc2Cl)c(Cl)c1 [Entry 429] | < 7.00 | > 7.30 | > 7.30 | < 7.00 |
| – | – | Cc1ccc(-n2nnnc2SCC(=O)Nc2ccc(-c3ccccc3)cc2C)c(Cl)c1 [Entry 511] | < 7.00 | > 7.30 | > 7.30 | < 7.00 |
| – | – | CC(C)(C)c1ccc(-n2nnnc2SCC(=O)Nc2ccc(S(=O)(=O)c3ccccc3)cc2Cl)c(Cl)c1 [Entry 606] | 7.00 to 7.30 | > 7.30 | > 7.30 | 7.00 to 7.30 |
| – | – | CC(C)(C)c1ccc(-n2nnnc2SCC(=O)Nc2ccc([N+](=O)[O-])cc2Cl)c(Cl)c1 [Entry 602] | < 7.00 | 7.00 to 7.30 | > 7.30 | < 7.00 |
| – | – | O=C(CSc1nnnn1-c1cccc2ccccc12)Nc1ccc(-c2ccccc2)cc1Cl [Entry 238] | < 7.00 | 7.00 to 7.30 | > 7.30 | < 7.00 |
| – | – | CC(C)CS(=O)(=O)c1ccc(NC(=O)CSc2nnnn2-c2ccc(C(C)(C)C)cc2Cl)c(Cl)c1 [Entry 608] | 7.00 to 7.30 | > 7.30 | > 7.30 | < 7.00 |
| – | – | CCN(CC)c1ccc(-n2nnnc2SCC(=O)Nc2ccccc2Cl)c(Cl)c1 [Entry 705] | < 7.00 | > 7.30 | > 7.30 | < 7.00 |
